“And” between values parts separate entries of the source, which are not always exact repeats. Identical values can stand only once.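 Method: 48-hour compound exposure of cells in 96-well plates, five concentrations, linear interpolation of endpoints. Abbreviation: GI50, concentration required for 50% inhibition of growth.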 The source made the active and inactive calls. Rule as the data show it: active = GI50 up to about 1.1 µM and inactive = higher.
Key:
Experiment in all cases: NCI tumour cell line growth inhibition, 48 h
SK-MEL-28 = tested on: SK-MEL-28
HCT-15 = tested on: HCT-15
HT-29 = tested on: HT-29
SNB-75 = tested on: SNB-75
T47D = tested on: T47D
DMS-114 = tested on: DMS-114
KM-20L2 = tested on: KM-20L2
HCC 2998 = tested on: HCC 2998
MOLT-4 = tested on: MOLT-4
SN12C = tested on: SN12C
SF-539 = tested on: SF-539
RPMI-8226 = tested on: RPMI-8226
NCI-H23 = tested on: NCI-H23
786-0 = tested on: 786-0
CAKI-1 = tested on: CAKI-1
UO-31 = tested on: UO-31
MCF7 = tested on: MCF7
MDA-N = tested on: MDA-N
Hs-578T = tested on: Hs-578T
SR = tested on: SR
SF-295 = tested on: SF-295
UACC-62 = tested on: UACC-62
RXF 393 = tested on: RXF 393
SK-OV-3 = tested on: SK-OV-3
COLO 205 = tested on: COLO 205
KM12 = tested on: KM12
CCRF-CEM = tested on: CCRF-CEM
PC-3 = tested on: PC-3
SW-620 = tested on: SW-620
U-251 = tested on: U-251
HOP-92 = tested on: HOP-92
NCI-H460 = tested on: NCI-H460
OVCAR-5 = tested on: OVCAR-5
DU-145 = tested on: DU-145
SF-268 = tested on: SF-268
NCI-H226 = tested on: NCI-H226
BT-549 = tested on: BT-549
EKVX = tested on: EKVX
DLD-1 = tested on: DLD-1
HCT-116 = tested on: HCT-116
HOP-62 = tested on: HOP-62
RXF 631 = tested on: RXF 631
LXFL 529 = tested on: LXFL 529
NCI-H522 = tested on: NCI-H522
LOX IMVI = tested on: LOX IMVI
DMS-273 = tested on: DMS-273
MDA-MB-231 = tested on: MDA-MB-231
OVCAR-4 = tested on: OVCAR-4
SNB-78 = tested on: SNB-78
NCI/ADR-RES = tested on: NCI/ADR-RES
ACHN = tested on: ACHN
IGROV-1 = tested on: IGROV-1
UACC-257 = tested on: UACC-257
M19-MEL = tested on: M19-MEL
HOP-18 = tested on: HOP-18
HL-60 = tested on: HL-60
TK-10 = tested on: TK-10
A498 = tested on: A498
SK-MEL-2 = tested on: SK-MEL-2
M14 = tested on: M14
A549 = tested on: A549
SNB-19 = tested on: SNB-19
XF498 = tested on: XF498
OVCAR-3 = tested on: OVCAR-3
OVCAR-8 = tested on: OVCAR-8
MDA-MB-435 = tested on: MDA-MB-435
Malme-3M = tested on: Malme-3M
K562 = tested on: K562
SK-MEL-5 = tested on: SK-MEL-5

c1ccc(CN2CCc3[nH]c4ccccc4c3C2)cc1
GI50 (SK-MEL-28): 17.5 µM (inactive)
GI50 (HCT-15): 25.9 µM
GI50 (HT-29): 17.3 µM (inactive)
GI50 (SNB-75): 51.6 µM (inactive)
GI50 (T47D): 14.9 µM (inactive)
GI50 (DMS-114): 19.8 µM (inactive)
GI50 (KM-20L2): 15 µM (inactive)
GI50 (HCC 2998): 15.4 µM (inactive)
GI50 (MOLT-4): 22.2 µM (inactive)
GI50 (SN12C): 34.3 µM (inactive)
GI50 (SF-539): 25 µM (inactive)
GI50 (RPMI-8226): 23.8 µM (inactive)
GI50 (NCI-H23): 59.2 µM (inactive)
GI50 (786-0): 22 µM (inactive)
GI50 (CAKI-1): 36.5 µM (inactive)
GI50 (UO-31): 31.8 µM (inactive)
GI50 (MCF7): 17.1 µM (inactive)
GI50 (MDA-N): 22.1 µM (inactive)
GI50 (Hs-578T): 32.5 µM (inactive)
GI50 (SR): 21.9 µM (inactive)
GI50 (SF-295): 29.9 µM (inactive)
GI50 (UACC-62): 26.1 µM (inactive)
GI50 (RXF 393): 34.7 µM (inactive)
GI50 (SK-OV-3): 58.3 µM (inactive)
GI50 (COLO 205): 16.9 µM (inactive)
GI50 (KM12): 22.5 µM (inactive)
GI50 (CCRF-CEM): 24.3 µM (inactive)
GI50 (PC-3): 25.4 µM (inactive)
GI50 (SW-620): 24.8 µM (inactive)
GI50 (U-251): 21.4 µM (inactive)
GI50 (HOP-92): 18 µM (inactive)
GI50 (NCI-H460): 16.7 µM (inactive)
GI50 (OVCAR-5): 39.9 µM (inactive)
GI50 (DU-145): 31 µM (inactive)
GI50 (SF-268): 43.8 µM (inactive)
GI50 (NCI-H226): 33.4 µM (inactive)
GI50 (BT-549): 30.5 µM (inactive)
GI50 (EKVX): 46.5 µM (inactive)
GI50 (DLD-1): 37.8 µM (inactive)
GI50 (HCT-116): 19.9 µM (inactive)
GI50 (HOP-62): 41 µM (inactive)
GI50 (RXF 631): 18.8 µM (inactive)
GI50 (LXFL 529): 22.9 µM (inactive)
GI50 (NCI-H522): 18.1 µM (inactive)
GI50 (LOX IMVI): 18.3 µM (inactive)
GI50 (DMS-273): 56.2 µM (inactive)
GI50 (MDA-MB-231): 26.7 µM (inactive)
GI50 (OVCAR-4): 34.8 µM (inactive)
GI50 (SNB-78): 35.6 µM (inactive)
GI50 (NCI/ADR-RES): 36.1 µM (inactive)
GI50 (ACHN): 33.9 µM (inactive)
GI50 (IGROV-1): 38.7 µM (inactive)
GI50 (UACC-257): 16 µM (inactive)
GI50 (M19-MEL): 26.5 µM (inactive)
GI50 (HOP-18): 99.8 µM (inactive)
GI50 (HL-60): 17.6 µM (inactive)
GI50 (TK-10): 23.9 µM (inactive)
GI50 (A498): 26.6 µM (inactive)
GI50 (SK-MEL-2): 19.9 µM (inactive)
GI50 (M14): 17.3 µM (inactive)
GI50 (A549): 67.8 µM (inactive)
GI50 (SNB-19): 69.8 µM (inactive)
GI50 (XF498): 24.2 µM (inactive)
GI50 (OVCAR-3): 33 µM (inactive)
GI50 (OVCAR-8): 46.1 µM (inactive)
GI50 (MDA-MB-435): 22.9 µM (inactive)
GI50 (Malme-3M): 17.8 µM (inactive)
GI50 (K562): 19.1 µM (inactive)
GI50 (SK-MEL-5): 16.9 µM (inactive)

CN(C)C(=S)SSC(=S)N(C)C [THIRAM]
GI50 (SK-MEL-28): 13 µM (inactive) and 23.8 µM (inactive)
GI50 (SNB-75): 28.1 µM (inactive) and 36 µM (inactive)
GI50 (T47D): 26.2 µM (inactive) and 18.3 µM (inactive)
GI50 (DMS-114): 0.124 µM (active)
GI50 (KM-20L2): 1.64 µM (inactive)
GI50 (HCC 2998): 16.7 µM (inactive) and 29.3 µM (inactive)
GI50 (SN12C): 36.4 µM (inactive) and 24.3 µM (inactive)
GI50 (UO-31): > 46.5 µM (inactive) and 31.9 µM (inactive)
GI50 (MCF7): 20.8 µM (inactive) and 17.7 µM (inactive)
GI50 (MDA-N): 19.1 µM (inactive) and 14.1 µM (inactive)
GI50 (SF-295): 21 µM (inactive) and 28.6 µM (inactive)
GI50 (UACC-62): 3.52 µM (inactive) and 2.3 µM (inactive)
GI50 (U-251): 14.3 µM (inactive) and 17.9 µM (inactive)
GI50 (DU-145): 47.1 µM (inactive) and 37.7 µM (inactive)
GI50 (BT-549): 17.2 µM (inactive) and 14.2 µM (inactive)
GI50 (DLD-1): 2.59 µM (inactive)
GI50 (HOP-62): > 67.9 µM (inactive)
GI50 (RXF 631): 42.2 µM (inactive)
GI50 (LXFL 529): 1.98 µM (inactive)
GI50 (DMS-273): 0.285 µM (active)
GI50 (MDA-MB-231): 16.8 µM (inactive) and 20.2 µM (inactive)
GI50 (SNB-78): > 75.5 µM (inactive)
GI50 (NCI/ADR-RES): 17.2 µM (inactive)
GI50 (M19-MEL): 0.581 µM (active)
GI50 (HOP-18): > 100 µM (inactive)
GI50 (A498): 45.8 µM (inactive) and > 60 µM (inactive)
GI50 (M14): 17.3 µM (inactive) and 20.6 µM (inactive)
GI50 (SNB-19): > 57.8 µM (inactive) and 54.6 µM (inactive)
GI50 (XF498): 4.48 µM (inactive)
GI50 (Malme-3M): 20.2 µM (inactive) and 12.4 µM (inactive)

Source: ChEMBL document CHEMBL1201862, “PubChem BioAssay data set” (2004)
